# Results as given in paper PMC6125496 (Antimicrobial Agents and Chemotherapy, 2018).
# Like-named read-outs stand apart in the source and are kept apart here. Non-standard residues stand in square brackets, D forms with d. Residues, ends and D or L forms follow the SMILES beside them. Dab(3S-OH) = NC[C@H](O)[C@H](N)C(=O)O; Phe(2-F) = N[C@@H](Cc1ccccc1F)C(=O)O; ΔZArg = N=C(N)NCC/C=C(\N)C(=O)O; dOrn = NCCC[C@@H](N)C(=O)O; Dab = NCC[C@H](N)C(=O)O
# How the values were obtained:
# [1] = test system: Citrobacter freundii DSM 30039; assay: microbe, parasite or virus in culture
# From the text: (§1) Reference strains are from the German Collection of Microorganisms and Cell Cultures (DSMZ), the American Type Culture Collection (ATCC), the National Collection of Type Cultures (NCTC), and the Medical and Molecular Microbiology, Faculty of Science and Medicine, University of Fribourg, Switzerland.
# [2] = test system: Enterobacter aerogenes DSM 30053; assay: microbe, parasite or virus in culture
# From the text: as §1
# [3] = test system: Serratia marcescens DSM 17174; assay: microbe, parasite or virus in culture
# From the text: as §1
# [4] = test system: Acinetobacter baumannii ATCC 19606; assay: microbe, parasite or virus in culture
# From the text: as §1
# [5] = test system: Klebsiella pneumoniae NCTC 13439; assay: microbe, parasite or virus in culture
# From the text: as §1
# [6] = test system: Enterococcus faecium DSM 20477; assay: microbe, parasite or virus in culture
# From the text: as §1
# [7] = test system: Klebsiella pneumoniae ATCC BAA-1904; assay: microbe, parasite or virus in culture
# From the text: as §1
# [8] = test system: Streptococcus pneumoniae DSM 2134; assay: microbe, parasite or virus in culture
# From the text: as §1
# [9] = test system: Klebsiella pneumoniae ATCC BAA-1905; assay: microbe, parasite or virus in culture
# From the text: as §1
# [10] = test system: Enterobacter cloacae DSM 14563; assay: microbe, parasite or virus in culture
# From the text: as §1
# [11] = test system: Ciprofloxacin-resistant E. coli (19); assay: microbe, parasite or virus in culture
# From the text: as §1
# [12] = test system: Citrobacter kozeri DSM 4595; assay: microbe, parasite or virus in culture
# From the text: as §1
# [13] = test system: Klebsiella pneumoniae ATCC 43816; assay: microbe, parasite or virus in culture
# From the text: as §1
# Escherichia coli (101) = assay: microbe, parasite or virus in culture; details: 101 clinical isolates
# From the text: as §1
# [14] = test system: Gentamicin-resistant K. pneumoniae (16); assay: microbe, parasite or virus in culture
# From the text: as §1
# [15] = test system: Pseudomonas aeruginosa DSM 1117; assay: microbe, parasite or virus in culture
# From the text: as §1
# [16] = test system: Escherichia coli ATCC 25922; assay: microbe, parasite or virus in culture
# From the text: as §1
# [17] = test system: Citrobacter freundii (16); assay: microbe, parasite or virus in culture
# From the text: as §1
# [18] = test system: Escherichia coli BAA-2469; assay: microbe, parasite or virus in culture
# From the text: as §1
# [19] = test system: Klebsiella pneumoniae NCTC 13443; assay: microbe, parasite or virus in culture
# From the text: as §1
# [20] = test system: Klebsiella pneumoniae NCTC 13442; assay: microbe, parasite or virus in culture
# From the text: as §1
# [21] = test system: Staphylococcus aureus ATCC 29213; assay: microbe, parasite or virus in culture
# From the text: as §1
# [22] = test system: Escherichia coli BAA-2471; assay: microbe, parasite or virus in culture
# From the text: as §1
# [23] = test system: Enterobacter cloacae (13); assay: microbe, parasite or virus in culture
# From the text: as §1
# [24] = test system: Ciprofloxacin-resistant K. pneumoniae (27); assay: microbe, parasite or virus in culture
# From the text: as §1
# [25] = test system: Enterococcus faecalis DSM 2570; assay: microbe, parasite or virus in culture
# From the text: as §1
# [26] = test system: Stenotrophomonas maltophilia ATCC 13637; assay: microbe, parasite or virus in culture
# From the text: as §1
# [27] = test system: Staphylococcus epidermidis ATCC 12228; assay: microbe, parasite or virus in culture
# From the text: as §1
# [28] = test system: Klebsiella pneumoniae (56); assay: microbe, parasite or virus in culture
# From the text: as §1
# [29] = test system: Klebsiella pneumoniae DUB; details: Ambler class D carbapenemase; OXA-48 + CTX-M15 + TEM-1 + SHV-1 + OXA-1 + CMY-2
# From the text: as §1
# Escherichia coli MIN = details: Ambler class A carbapenemase; KPC-3 + OXA-9
# From the text: as §1
# Citrobacter freundii MAU = details: Ambler class C carbapenem resistant; AmpC overexpressed + TEM-3
# From the text: as §1
# [30] = test system: Polymyxin B-resistant E. coli (2)
# From the text: as §1
# [31] = test system: Enterobacter cloacae 10.72; details: Ambler class C carbapenem resistant; AmpC overexpressed + TEM-1 + OXA-1
# From the text: as §1
# [32] = 19 ciprofloxacin-resistant isolates
# [33] = 16 gentamicin-resistant isolates
# [34] = Ambler class B carbapenemase, NDM-1
# [35] = 27 ciprofloxacin-resistant isolates
molecule,measurement,setting,value
N=C(N)NCC/C=C(\NC(=O)[C@H](CCCCN)NC(=O)[C@H](Cc1ccccc1F)NC(=O)[C@@H]1CCCN1C(=O)[C@@H](CCCN)NC(=O)CNC(=O)[C@H](CCN)NC(=O)[C@@H](NC(=O)[C@@H](N)CCCCN)[C@@H](O)CN)C(=O)O [NOSO-502] (H-K[Dab(3S-OH)][Dab]G[dOrn]P[Phe(2-F)]K[ΔZArg]-OH),MIC,[1]; DSM 30039,2 mg/L
same,MIC,[2]; DSM 30053,2 mg/L
same,MIC,[3]; DSM 17174,4 mg/L
same,MIC,[4]; ATCC 19606,>64 mg/L
same,MIC,[5]; NCTC 13439,1 mg/L
same,MIC,[6]; DSM 20477,64 mg/L
same,MIC,[7]; ATCC BAA-1904,2 mg/L
same,MIC,[8]; DSM 2134,64 mg/L
same,MIC,[9]; ATCC BAA-1905,1 mg/L
same,MIC,[10]; DSM 14563,2 mg/L
same,MIC range,[11]; Ciprofloxacin-resistant (19),2 to 32 mg/L
same,MIC,[12]; DSM 4595,2 mg/L
same,MIC,[13]; ATCC 43816,1 mg/L
same,MIC 50%,Escherichia coli (101),4 mg/L
same,MIC 90%,Escherichia coli (101),8 mg/L
same,MIC range,[14]; Gentamicin-resistant (16),0.5 to 2 mg/L
same,MIC,[15]; DSM 1117,>64 mg/L
same,MIC,[16]; ATCC 25922,4 mg/L
same,MIC range,[17],1 to 4 mg/L
same,MIC,[18]; BAA-2469,2 mg/L
same,MIC,[19]; NCTC 13443,1 mg/L
same,MIC,[20]; NCTC 13442,1 mg/L
same,MIC,[21]; ATCC 29213,1 mg/L
same,MIC,[22]; BAA-2471,4 mg/L
same,MIC range,[23]; 13,1 to 4 mg/L
same,MIC range,[24]; Ciprofloxacin-resistant (27),0.5 to 16 mg/L
same,MIC,[25]; DSM 2570,>64 mg/L
same,MIC,[26]; ATCC 13637,16 mg/L
same,MIC,[27]; ATCC 12228,0.25 mg/L
same,MIC range,[28]; 56,0.5 to 16 mg/L
same,MIC,[29],0.5 mg/L
same,MIC,Escherichia coli MIN,4 mg/L
same,MIC,Citrobacter freundii MAU,1 mg/L
same,MIC range,[30]; Polymyxin B-resistant (2),4 to 8 mg/L
same,MIC,[31],1 mg/L
polymyxin B [PMB],MIC,[1]; reference strain,0.5 mg/L
same,MIC,[2]; reference strain,0.5 mg/L
same,MIC,[3]; reference strain,>32 mg/L
same,MIC,[4]; reference strain,0.5 mg/L
same,MIC,"[5]; Ambler class B carbapenemase, VIM-1",0.5 mg/L
same,MIC,[6]; reference strain,>32 mg/L
same,MIC,"[7]; Ambler class A carbapenemase, KPC-3",0.5 mg/L
same,MIC,[8]; reference strain,>32 mg/L
same,MIC,"[9]; Ambler class A carbapenemase, KPC-2",0.5 mg/L
same,MIC,[10]; reference strain,1 mg/L
same,MIC 50%,[11]; [32],0.5 mg/L
same,MIC 90%,[11]; [32],1 mg/L
same,MIC range,[11]; [32],0.5 to 32 mg/L
same,MIC,[12]; reference strain,0.25 mg/L
same,MIC,[13]; reference strain,1 mg/L
same,MIC 50%,Escherichia coli (101),0.5 mg/L
same,MIC 90%,Escherichia coli (101),1 mg/L
same,MIC 50%,[14]; [33],0.5 mg/L
same,MIC 90%,[14]; [33],1 mg/L
same,MIC range,[14]; [33],0.5 to 1 mg/L
same,MIC,[15]; reference strain,1 mg/L
same,MIC,[16]; reference strain,0.5 mg/L
same,MIC 50%,[17]; 16 clinical isolates,0.5 mg/L
same,MIC 90%,[17]; 16 clinical isolates,1 mg/L
same,MIC range,[17]; 16 clinical isolates,0.25 to 1 mg/L
same,MIC,[18]; [34],0.25 mg/L
same,MIC,[19]; [34],0.5 mg/L
same,MIC,"[20]; Ambler class D carbapenemase, OXA-48",0.5 mg/L
same,MIC,[21]; reference strain,16 mg/L
same,MIC,[22]; [34],0.25 mg/L
same,MIC 50%,[23]; 13 clinical isolates,0.5 mg/L
same,MIC 90%,[23]; 13 clinical isolates,8 mg/L
same,MIC range,[23]; 13 clinical isolates,0.5 to 16 mg/L
same,MIC 50%,[24]; [35],0.5 mg/L
same,MIC 90%,[24]; [35],1 mg/L
same,MIC,[25]; reference strain,>32 mg/L
same,MIC,[26]; reference strain,1 mg/L
same,MIC,[27]; reference strain,16 mg/L
same,MIC 50%,[28]; 56 clinical isolates,0.5 mg/L
same,MIC 90%,[28]; 56 clinical isolates,4 mg/L
same,MIC range,[28]; 56 clinical isolates,0.25 to 32 mg/L
same,MIC,[29],0.5 mg/L
same,MIC,Escherichia coli MIN,0.5 mg/L
same,MIC,Citrobacter freundii MAU,0.5 mg/L
same,MIC range,[30]; 2 polymyxin B-resistant isolates,4 to 32 mg/L
same,MIC,[31],0.5 mg/L
